Assay results published in patent US20080015198A1, “Substituted pyrazoline compounds, their preparation and use as medicaments” (LABORATORIOS DEL DR.ESTEVE S.A., priority 2004, published 2008).

Legend:
cannabinoid receptors [1] = test: Mouse tetrad model, agonistic effect; assay type: in vivo, mice; conditions: 5 mg/kg i.v.; for Agonistic effect B: Hypothermia: unit assumed
Description: (§1) Substances with affinity for cannabinoid receptors are known to produce a wide range of pharmacological effects. It is also known that intravenous administration of a substance with affinity for cannabinoid receptors in mice produces analgesia, hypothermia, sedation and catalepsy. Individually, none of these effects can be considered as proof that a tested substance has affinity for cannabinoid-receptors, since all of these effects are common for various classes of centrally active agents. However, substances, which show all of these effects, i.e. substances that are active in this so-called tetrad model are considered to have affinity for the cannabinoid receptors. It has further been shown that cannabinoid receptor antagonists are higly effective in blocking the effects of a cannabinoid agonist in the mouse tetrad model.
(§2) The tetrad model is described, for example, in the publication of A. C. Howlett et al, International Union of Pharmacology XXVII. Classification of Cannabinoid Receptors, Pharmacol Rev 54, 161-202, 2002 and David R. Compton et al., “In-vivo Characterization of a Specific Cannabinoid Receptor Antagonist (SR141716A): Inhibition of Tetrahydrocannbinol-induced Responses and Apparent Agonist Activity”, J. Pharmacol. Exp. Ther. 277 , 2, 586-594, 1996. The corresponding parts of the description are hereby incorporated by reference.
(§3) Male NMRI mice with a weight of 20-30 g (Harlan, Barcelona, Spain) are used in all of the following experiments.
(§4) Before testing in the behavioral procedures given below, mice are acclimatized to the experimental setting. Pre-Treatment control values are determined for analgesia hot plate latency (in seconds), rectal temperature, sedation and catalepsy.
In order to determine the agonistic activty of the substance to be tested, the mice are injected intravenously with the substance to be tested or the vehicle alone. 15 minutes after injection, latency in hot plate analgesia is measured. Rectal temperature, sedation and catalepsy are measured 20 minutes after injection.
(§5) The hot plate analgesia is determined according to the method described in Woolfe D. et al. “The evaluation of analgesic action of pethidine hydrochloride (Demerol)”, J. Pharmacol. Exp. Ther. 80, 300-307, 1944.
(§6) The mice are placed on a hot plate (Harvard Analgesimeter) at 55±0.5° C. until they show a painful sensation by licking their paws or jumping and the time for these sensations to occur is recorded. This reading is considered the basal value (B). The maximum time limit the mice are allowed to remain on the hot plate in absence of any painful response is 40 seconds in order to prevent skin damage. This period is called the cut-off time (PC).
(§7) Fifteen minutes after the administration of the substance to be tested, the mice are again placed on the hot plate and the afore described procedure is repeated. This period is called the post-treatment reading (PT).
(§8) The degree of analgesia is calculated from the formula:
(§9) % MPE of Analgesia=(PT−B)/(PC−B)×100
(§10) Sedation and ataxia is determined according to the method described in Desmet L. K. C. et al. “Anticonvulsive properties of Cinarizine and Flunarizine in Rats and Mice”, Arzneim. -Forsch. (Frug Res) 25, 9, 1975.
(§11) The percentage of sedation is determined according to the formula:
(§12) % of sedation=arithmetic mean/3×100
(§13) Hypothermia is determined according to the method described in David R. Compton et. al. “In-vivo Characterization of a Specific Cannabinoid Receptor Antagonist (SR141716A) Inhibition of Tetrahydrocannbinol-induced Responses and Apparent Agonist Activity”, J. Pharmacol Exp Ther. 277, 2, 586-594, 1996.

cannabinoid receptors [2] = test: Mouse tetrad model, antagonistic effect against Win 55212-2; assay type: in vivo, mice; conditions: 5 mg/kg i.v. prior to Win 55212-2 in a dose of 1.25 mg/kg i.v.; for Antagonistic effect A: Hot-Plate test / Antagonistic effect B: Hypothermia: unit assumed
Description: as §1, §2, §3, §4
In order to determine the antagonistic activity the identical procedure is used as for the determination of the agonistic effects, but with the difference that the substance to be evaluated for its antagonistic activity is injectected 5 minutes before the intravenous injection of 1.25 mg/kg Win-55,212 a known cannabinoid-receptor agonist.
as §5, §6, §7, §8, §9, §10, §11, §12, §13

[3] = In-vivo testing for antiobesic activity; conditions: rats
[4] = In-vivo testing for antidepressant activity, water despair test
Method: The in-vivo testing for antidepressant activity of the inventive pyrazoline compounds in the water despair test was carried out as described above.

CB2-Receptor = molecular target: T1, CB2-Receptor (Homo sapiens, UniProt P34972); test: In-vitro determination of affinity to CB2-receptor, radioligand [3H]-CP55940; assay type: binding
T1 construct: purchased Receptor Biology, Inc
Method: Brockie et al., “Agonist-inverse agonist characterization at CB1 and CB2 cannabinoid receptors of L-759633, L759656 and AM630”, British Journal of Pharmacology, 126, 665-672, (1999), whereby the transfected human CB1 and CB2 receptors of Receptor Biology, Inc. are used. The radioligand used for both receptors is [^3H]-CP55940.
The affinity of the inventive substituted pyrazoline compounds to CB1/CB2 receptors was determined as described above.

T1 sequence (P34972 whole entry): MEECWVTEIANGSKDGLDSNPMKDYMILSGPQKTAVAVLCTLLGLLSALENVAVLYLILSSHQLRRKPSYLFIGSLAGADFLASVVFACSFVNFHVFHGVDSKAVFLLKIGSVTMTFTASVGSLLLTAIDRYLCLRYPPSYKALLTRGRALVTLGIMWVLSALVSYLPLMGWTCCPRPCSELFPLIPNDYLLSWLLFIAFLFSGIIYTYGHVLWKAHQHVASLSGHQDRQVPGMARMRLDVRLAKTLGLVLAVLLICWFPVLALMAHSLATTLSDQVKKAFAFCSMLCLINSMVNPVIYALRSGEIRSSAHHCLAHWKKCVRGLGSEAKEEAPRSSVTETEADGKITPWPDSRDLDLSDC

melting point [°C]	Ki (CB2-Receptor) [µM]	SMILES	Agonistic effect A: Hot-Plate test (cannabinoid receptors [1]) [%]	Agonistic effect C: Catalepsy (cannabinoid receptors [1]) [%]	Agonistic effect D: Sedation (cannabinoid receptors [1])	Agonistic effect B: Hypothermia (cannabinoid receptors [1]) [%]	Antagonistic effect C: Catalepsy (cannabinoid receptors [2]) [%]	Antagonistic effect D: Sedation (cannabinoid receptors [2]) [%]	Antagonistic effect A: Hot-Plate test (cannabinoid receptors [2]) [%]	Antagonistic effect B: Hypothermia (cannabinoid receptors [2]) [%]	body weight ([3]; 10 mg/kg intraperitoneally daily over 14 days, FIG. 1)	food intake ([3]; 10 mg/kg intraperitoneally daily over 14 days, FIG. 2)	body weight effect after the treatment is ended ([3]; after end of 14 days of 10 mg/kg i.p. daily, FIG. 1)	immobility time [4]	struggling time [4]
134 to 138		O=C(Nn1cnnc1)C1=NN(c2ccc(Cl)cc2Cl)C(c2ccc(Cl)cc2)C1 (stereo not shown)													
150 to 155		CN1CCN(NC(=O)C2=NN(c3ccc(Cl)cc3Cl)C(c3ccc(Cl)cc3)C2)CC1.Cl (stereo not shown)													
		O=C(NN1CCCCC1)C1=NN(c2ccc(Cl)cc2Cl)C(c2ccc(Cl)cc2)C1 (stereo not shown) [Example 1, N-piperidinyl-5-(4-chlorophenyl)-1-(2,4-dichlorophenyl)-4,5-dihydro-1H-pyrazole-3-carboxamide]	0	0	0	0	100	100	74	100	lowered	reduction of food intake	also observed after the treatment is ended	positive effects	positive effects
105 to 110	~1	O=C(C1=NN(c2ccc(Cl)cc2Cl)C(c2ccc(Cl)cc2)C1)N1CCCCC1 (stereo not shown) [Example 5, [5-(4-Chloro-phenyl)-1-(2,4-dichloro-phenyl)-4,5-dihydro-1H-pyrazol-3-yl]-piperidin-1-yl-methanone]	0	0	0	50	20	20	50	40					
